B1: myc-epitope tag fusion TBX5 (other, not shown: small tags and cut ends)
chain: MADADEGFGLAHTPLEPDAKDLPCDSKPESALGAPSKSPSSPQAAFTQQGMEGIKVFLHERELWLKFHEVGTEMIITKAGRRMFPSYKVKVTGLNPKTKYILLMDIVPADDHRYKFADNKWSVTGKAEPAMPGRLYVHPDSPATGAHWMRQLVSFQKLKLTNNHLDPFGHIILNSMHKYQPRLHIVKADENNGFGSKNTAFCTHVFPETAFIAVTSYQNHKITQLKIENNPFAKGFRGSDDMELHRMSRMQSKEYPVVPRSTVRQKVASNHSPFSSESRALSTSSNLGSQYQCENGVSGPSQDLLPPPNPYPLPQEHSQIYHCTKRKEEECSTTDHPYKKPYMETSPSEEDSFYRSSYPQQQGLGASYRTESAQRQACMYASSAPPSEPVPSLEDISCNTWPSMPSYSSCTVTTVQPMDRLPYQHFSAHFTSGPLVPRLAGMANHGSPQLGEGMFQHQTSVAHQPVVRQCGPQTGLQSPGTLQPPEFLYSHGVPRTLSPHQYHSVHGVGMVPEWSDNS
notes: Expressed in transfected HEK293 cells; The tag's position is unknown; also called Myc-tagged TBX5; T-box transcription factor TBX5
B2: myc-epitope tag fusion HAND2 (other, not shown: small tags and cut ends)
chain: MSLVGGFPHHPVVHHEGYPFAAAAAAAAAAAASRCSHEENPYFHGWLIGHPEMSPPDYSMALSYSPEYASGAAGLDHSHYGGVPPGAGPPGLGGPRPVKRRGTANRKERRRTQSINSAFAELRECIPNVPADTKLSKIKTLRLATSYIAYLMDLLAKDDQNGEAEAFKAEIKKTDVKEEKRKKELNEILKSTVSSNDKKTKGRTGWPQHVWALELKQ
notes: Expressed in transfected HEK293 cells; The tag's position is unknown; also called Myc-tagged HAND2; Heart- and neural crest derivatives-expressed protein 2

Columns and labels:
fibroblasts = settings: added to reprogramming cocktail (GMT); cited from earlier work
[1] = test system: 5F-reprogrammed adult αMHC-GFP transgenic TTFs; assay: Immunocytochemistry and flow cytometry of αMHC-GFP and cTnT in 5F-reprogrammed TTFs treated with anti-inflammatory drugs; format: cell-based, mouse; settings: drug added to 5F, 7 days
Experimental: (§1) Retroviruses production, cellular reprogramming and treatment. For retroviruses production, Platinum E cells were seeded into culture dishes (1×10^5 cells/cm2) one day before transfection in DMEM supplemented with 10% FBS and 1% penicillin/streptomycin. Cells reached ˜80% confluency on the day of transfection. DNA plasmids were transfected into Platinum E cells using FuGENE 6 transfection reagent. Twenty-four hours after transfection, wild type or αMHC-GFP tail-tip fibroblasts were seeded into culture dishes or plates that were precoated with SureCoat (Cellutron) for one hour at a density of 6×10^4/cm^2. Forty-eight hours after transfection, polybrene was added to viral medium that was filtered through a 0.45-μm filter at a concentration of […]. The mixture replaced the growth medium in the cell culture plate with tail-tip fibroblasts. The viral infection was serially repeated twice. […]
Flow Cytometry. […] Cells were washed with Perm/Wash buffer, and then analyzed using FACS Caliber (BD Sciences) and FlowJo software. […]

5F-reprogrammed TTFs = assay: q-PCR of inflammatory and cardiac markers in 5F-reprogrammed TTFs treated with anti-inflammatory drugs; format: cell-based, mouse; settings: drug 10 μM added to 5F, 7 days
Experimental: as §1, with “twice. Twenty-four hours after the second infection, the viral medium was replaced with induction medium, composed of DMEM/199 (4:1), 10% conditioned medium obtained from neonatal rat cardiomyocyte culture, 10% FBS, 5% horse serum, 1% penicillin/streptomycin, 1% nonessential amino acids, 1% essential amino acids, 1% B-27, 1% insulin-selenium-transferrin, 1% vitamin mixture, and 1% sodium pyruvate (Invitrogen).” for “twice.”
Quantitative mRNA measurement. […]

[2] = test system: adult tail-tip fibroblasts (TTFs) from αMHC-GFP mice; assay: Human retroviral ORF cDNA library screen for AGHMT-mediated cardiac reprogramming (high-throughput imaging of αMHC-GFP and cTnT); format: cell-based, mouse; settings: for cTnT Z-score / αMHC Z-score: individual cDNA expressed together with 5F (AGHMT), 9 days, Z-score ≥2 activator, ≤−2 inhibitor; for αMHC Z-score: αMHC-GFP; for 5F-mediated cardiac reprogramming (αMHC-GFP, cTnT immunocytochemistry): virus added to 5F (AGHMT), 9 days post-infection
Text: Isolation of mouse tail-tip fibroblast. For isolation of adult mouse tail-tip fibroblasts, tails were cut from 8-12 weeks old adult wild-type or αMHC-GFP mouse and were minced into […] with razor blades after peeling off the superficial dermis. The minced tails were placed in fibroblast growth medium (DMEM supplemented with 10% FBS and 1% (vol/vol) penicillin/streptomycin). Tail-tip fibroblasts migrated out from the explants within 1 week and were passaged one time before use.
Construction of human retroviral ORFs library. Gateway-compatible Human ORFs pEntry vectors were purchased from Thermo Fisher Scientific. Gateway-compatible retroviral destination vector, pMXs-gw, was a gift from Shinya Yamanaka (Addgene plasmid #18656) (Takahashi, 2006). The inventors transferred each ORF individually into pMXs-gw by performing site-specific LR recombination using Gateway LR Clonase II Enzyme Mix kit (Thermo Fisher Scientific).
Retroviruses production, cellular reprogramming and treatment. For retroviruses production, Platinum E cells were seeded into culture dishes (1×10^5 cells/cm2) one day before transfection in DMEM supplemented with 10% FBS and 1% penicillin/streptomycin. Cells reached ˜80% confluency on the day of transfection. DNA plasmids were transfected into Platinum E cells using FuGENE 6 transfection reagent. Twenty-four hours after transfection, wild type or αMHC-GFP tail-tip fibroblasts were seeded into culture dishes or plates that were precoated with SureCoat (Cellutron) for one hour at a density of 6×10^4/cm^2. Forty-eight hours after transfection, polybrene was added to viral medium that was filtered through a 0.45-μm filter at a concentration of […]. The mixture replaced the growth medium in the cell culture plate with tail-tip fibroblasts. The viral infection was serially repeated twice. Twenty-four hours after the second infection, the viral medium was replaced with induction medium, composed of DMEM/199 (4:1), 10% conditioned medium obtained from neonatal rat cardiomyocyte culture, 10% FBS, 5% horse serum, 1% penicillin/streptomycin, 1% nonessential amino acids, 1% essential amino acids, 1% B-27, 1% insulin-selenium-transferrin, 1% vitamin mixture, and 1% sodium pyruvate (Invitrogen). Small molecule treatments were used throughout the reprogramming process […] (Sigma).
Immunocytochemistry. For immunocytochemistry, cells were fixed in 4% paraformaldehyde for 15 min and permeabilized with 0.1% Triton-X in room temperature. Cells were washed with PBS for three times followed by blocking with 10% goat serum for 1 hr. Cells then were incubated with mouse monoclonal anti-cardiac Troponin T (cTnT) antibody (Thermo Scientific) at 1:500 dilutions and rabbit anti-GFP antibody (Thermo Scientific) at 1:500 dilutions in 5% Goat serum for 1 hr. After washing with PBS three times, Cells then were incubated with donkey anti-mouse alexa fluor 647 (Invitrogen) at 1:500 and goat anti-rabbit Alexa fluor 488 at 1:500 (Invitrogen).
Identification of activators and inhibitors of cardiac reprogramming in adult fibroblasts. The inventors' previously optimized cardiac reprogramming protocol with five factors (AGHMT, also called 5F) was able to reprogram ˜3% efficiency of adult TTFs to iCMs as measured by activation of a cardiac-specific αMHC-GFP transgene and cardiac troponin T (cTnT) immunostaining (Zhou et al., 2015). To identify additional regulators of cardiac reprogramming, the inventors created a retroviral expression library consisting of 1,052 open reading frame (ORF) cDNAs representing 786 human transcription factor, cytokine, epigenetic regulator and nuclear receptor genes (Table 51). The inventors screened this expression library for activators and inhibitors of cardiac reprogramming by expressing individual cDNAs together with 5F in isolated TTFs from αMHC-GFP mice, as schematized in FIG. 1A. […]

[3] = biological target: GATA4 (expression plasmid, luciferase reporter assay) (human) (UniProt P43694); assay: cell-based or functional assay
[4] = biological target: T1, Flag-epitope tag ZNF281 fusion protein (human, UniProt Q9Y2X9 1-895); assay: co-immunoprecipitation from transfected HEK293 cells (anti-FLAG IP, anti-Myc blot)
T1 construct: Expressed in transfected HEK293 cells and tested in cell lysate; also called FLAG-tagged ZNF281; Flag-tagged ZNF281
T1 sequence: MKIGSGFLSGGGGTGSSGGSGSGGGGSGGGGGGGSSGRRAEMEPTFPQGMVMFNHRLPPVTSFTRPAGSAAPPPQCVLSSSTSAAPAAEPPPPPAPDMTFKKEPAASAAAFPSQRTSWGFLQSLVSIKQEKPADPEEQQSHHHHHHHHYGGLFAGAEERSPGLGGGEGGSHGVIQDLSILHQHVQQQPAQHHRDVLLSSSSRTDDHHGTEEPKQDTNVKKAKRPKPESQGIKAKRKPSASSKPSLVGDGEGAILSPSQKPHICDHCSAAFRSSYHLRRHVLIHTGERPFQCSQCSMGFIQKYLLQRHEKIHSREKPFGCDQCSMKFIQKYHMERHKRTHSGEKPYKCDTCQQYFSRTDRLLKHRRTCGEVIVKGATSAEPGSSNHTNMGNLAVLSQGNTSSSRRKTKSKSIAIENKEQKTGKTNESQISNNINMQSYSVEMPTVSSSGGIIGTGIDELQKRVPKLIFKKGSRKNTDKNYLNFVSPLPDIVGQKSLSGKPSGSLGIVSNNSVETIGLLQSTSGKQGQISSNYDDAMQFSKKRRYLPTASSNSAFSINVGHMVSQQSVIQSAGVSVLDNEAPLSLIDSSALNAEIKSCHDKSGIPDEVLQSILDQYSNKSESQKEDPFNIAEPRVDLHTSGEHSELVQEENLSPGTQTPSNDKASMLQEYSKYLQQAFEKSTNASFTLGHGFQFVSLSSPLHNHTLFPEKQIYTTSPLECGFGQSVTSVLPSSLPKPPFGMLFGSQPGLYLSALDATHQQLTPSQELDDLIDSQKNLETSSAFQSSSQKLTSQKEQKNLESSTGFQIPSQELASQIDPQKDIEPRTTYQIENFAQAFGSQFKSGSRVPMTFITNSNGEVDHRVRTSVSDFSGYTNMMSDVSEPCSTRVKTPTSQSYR
Experimental: FIGS. 6A-F. ZNF281 interacts with GATA4 to synergistically activate cardiac genes. (FIG. 6A) Co-immunoprecipitation assays were performed using HEK293 cells transfected with equal amounts of plasmid DNA encoding Myc-tagged GATA4, HAND2, MEF2c, or TBX5 and/or Flag-tagged ZNF281. IP, immunoprecipitation; IB, immunoblot. (FIG. 6B) Luciferase reporter assays were performed using HEK293 cells transfected with equal amounts of ZNF281 and/or GATA4 expression plasmids, as indicated, along with αMHC-luciferase reporter plasmid. (FIG. 6C) Heat maps showing ChIP-seq data for H3K27ac in adult mouse heart, and ZNF281 and GATA4 binding in reprogrammed TTFs at ±5 kB around the peak center. ChIP-seq experiments were performed using TTFs infected with 6F for 2 days. (FIG. 6D) ZNF281 binding motif enriched within ZNF281 binding peaks. (FIG. 6E) GATA4 binding motif enriched within GATA4 binding peaks. (FIG. 6F) Venn diagram showing the number of overlapping peaks between Heart H3K27ac, ZNF281 and GATA4. *P<0.05
Immunoprecipitation and Western Blot Analysis. Flag-epitope tag ZNF281 fusion protein were co-expressed with myc-epitope tag fusion GATA4, HAND2, MEF2C or TBX5 in HEK293 cells for 48 hours. […] The final elution and the input obtained before the immunoprecipitation was analyzed by SDS-PAGE western blot using a mouse monoclonal anti-Myc antibody (Novex) or mouse monoclonal anti-FLAG antibody (Sigma).

Chain of GATA4 (expression plasmid, luciferase reporter assay) (human) (P43694 whole entry, the tested form may be a part): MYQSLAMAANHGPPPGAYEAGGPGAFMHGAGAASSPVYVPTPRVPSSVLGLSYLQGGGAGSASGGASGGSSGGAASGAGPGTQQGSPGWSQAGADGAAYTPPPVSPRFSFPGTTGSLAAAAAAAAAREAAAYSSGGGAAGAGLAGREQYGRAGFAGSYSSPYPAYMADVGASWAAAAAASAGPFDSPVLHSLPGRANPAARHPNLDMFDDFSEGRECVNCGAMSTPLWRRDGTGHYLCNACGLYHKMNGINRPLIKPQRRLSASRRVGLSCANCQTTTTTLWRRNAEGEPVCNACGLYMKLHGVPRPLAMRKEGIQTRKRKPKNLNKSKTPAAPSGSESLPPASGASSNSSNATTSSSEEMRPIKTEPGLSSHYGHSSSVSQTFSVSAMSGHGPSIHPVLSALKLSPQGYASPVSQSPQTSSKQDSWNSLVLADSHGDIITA

Molecule	cTnT Z-score [2]	αMHC Z-score [2]	5F-mediated cardiac reprogramming (αMHC-GFP, cTnT immunocytochemistry) [2]	other results
C[C@H](NC(=O)Cc1cc(F)cc(F)c1)C(=O)N[C@H](C(=O)OC(C)(C)C)c1ccccc1 [DAPT]	–	–	–	cardiac reprogramming (fibroblasts): enhance cardiac reprogramming
NC(=O)c1ccc(-c2nc(-c3ccc4c(c3)OCO4)c(-c3ccccn3)[nH]2)cc1 [SB431542]	–	–	–	cardiac reprogramming (fibroblasts): enhance cardiac reprogramming
COc1ccc2cc(CCC(C)=O)ccc2c1 [nabumetone]	–	–	–	cardiac reprogramming efficiency [1]: greatly enhanced; expression of inflammatory markers (IL6, Ccl2, and Ptgs1) (5F-reprogrammed TTFs): decreased
Achaete-scute homolog 1 [ASCL1]	3.9	0.0	greatly enhanced reprogramming	–
BMP2	0.5	−3.2	–	–
PHD finger protein 7 [PHF7]	9.7	7.4	enhanced reprogramming	–
ZNF281 (expression plasmid, luciferase reporter assay) (from UniProt Q9Y2X9 1-895)	–	–	–	αMHC-Luciferase reporter activation [3]: 15 fold
forkhead box protein A3 [FOXA3]	−3.1	−4.3	practically abolished	–
B1	–	–	–	binding result [4]: no binding
B2	–	–	–	binding result [4]: no binding
